Target: T1, hGPR120 (Homo sapiens, UniProt Q5NUL3)
T1 construct: expressed in transfected cells; host or cells: CHO-K1
T1 sequence (Q5NUL3 1-361): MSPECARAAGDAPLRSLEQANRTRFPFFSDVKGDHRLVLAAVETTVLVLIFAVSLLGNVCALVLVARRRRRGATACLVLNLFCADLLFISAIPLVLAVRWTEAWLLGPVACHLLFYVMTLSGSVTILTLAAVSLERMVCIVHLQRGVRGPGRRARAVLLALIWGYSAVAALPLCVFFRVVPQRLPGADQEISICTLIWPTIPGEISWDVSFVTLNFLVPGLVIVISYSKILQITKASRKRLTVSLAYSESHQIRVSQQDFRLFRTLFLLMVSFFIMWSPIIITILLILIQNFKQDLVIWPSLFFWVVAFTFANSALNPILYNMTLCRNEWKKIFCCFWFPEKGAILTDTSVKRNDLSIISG
Assay: Measurement of Activity of GPR120 Agonist (Cell-Based Assay), Calcium 5 dye fluorescence
Conditions: CHO-K1 cells expressing Ga16 and hGPR120
Description: CHO-K1 cells expressing Ga16 and hGPR120 were dispensed into each well of a 96-well plate (3×10^4 cells/100 μl/well) and then incubated in 5% CO2, 37° C. incubator for 18 hours. Each well was treated with 100 μl of Calcium 5 dye (Molecular Devices) solution including 2% DMSO and then incubated in 5% CO2, 37° C. incubator for 1 hour. Serially diluted GPR120 agonists were prepared to a final concentration of 0.5% DMSO in a 96-well plate. Each well was treated with 50 μl of the agonist compounds using Plexstation II, and then fluorescence was measured at Ex 485 nm and Em 525 nm.
Fluorescence increased by the serially diluted GPR120 agonists is calculated as a relative percent (%) value based on the fluorescence represented by the treatment of 1% DMSO only. […] The calculation of measurement was carried out by using statistical software (Prizm).
Activity is denoted based on the following criteria: […]

Row | Compound | EC50 [nM]
1 | O=C(O)C1CC1COc1c(F)cc(-c2cc(F)cc(OC3CCC3)c2)cc1F (stereo not shown) [Example 541, 2-(3′-cyclobutoxy-3,5,5′-trifluoro-biphenyl-4-yloxymethyl)-cyclopropanecarboxylic acid] | < 200
2 | Cc1cc(OC(C)C)nc(-c2cc(F)c(N3CCC(CC(=O)O)C3)c(F)c2)n1 (stereo not shown) [Example 587, {1-[2,6-difluoro-4-(4-isopropoxy-6-methyl-pyrimidin-2-yl)-phenyl]-pyrrolidin-3-yl}-acetic acid] | 200 to 2000
3 | CC(C)(CCCC(=O)O)c1ccc(-c2cccnc2OC2CCCC2)cc1F [Example 161, 5-[4-(2-cyclopentyloxy-pyridin-3-yl)-2-fluoro-phenyl]-5-methyl-hexanoic acid] | 200 to 2000
4 | O=C(O)CC1CCN(c2c(F)cc(-c3nccc(Oc4cccc(C(F)(F)F)c4)n3)cc2F)CC1 [Example 611, 2-[1-[2,6-difluoro-4-[4-[3-(trifluoromethyl)phenoxy]pyrimidin-2-yl]phenyl]-4-piperidyl]acetic acid] | 200 to 2000
5 | CCOc1cncc(-c2cc(F)c(N3CCC(CC(=O)O)C3)c(F)c2)n1 (stereo not shown) [Example 585, {1-[4-(6-ethoxy-pyrazin-2-yl)-2,6-difluoro-phenyl]-pyrrolidin-3-yl}-acetic acid] | < 200
6 | O=C(O)CC1CCN(c2c(F)cc(-c3cccc(OCC4CC4)c3)cc2F)CC1 [Example 301, 2-[1-[4-[3-(cyclopropylmethoxy)phenyl]-2,6-difluoro-phenyl]-4-piperidyl]acetic acid] | 200 to 2000
7 | O=C(O)CC1CCN(c2c(F)cc(-c3ncc(F)c(OC4CCC4)n3)cc2F)C1 (stereo not shown) [Example 592, {1-[4-(4-cyclobutoxy-5-fluoro-pyrimidin-2-yl)-2,6-difluoro-phenyl]-pyrrolidin-3-yl}-acetic acid] | 200 to 2000
8 | O=C(O)CC1CCN(c2c(F)cc(-c3nccc(OCC4CC4)n3)cc2F)C1 (stereo not shown) [Example 581, {1-[4-(4-cyclopropylmethoxy-pyrimidin-2-yl)-2,6-difluoro-phenyl]-pyrrolidin-3-yl}-acetic acid] | < 200
9 | O=C(O)CC1CCN(c2c(F)cc(-c3ncc(F)c(OCC4CC4)n3)cc2F)C1 (stereo not shown) [Example 593, {1-[4-(4-cyclopropylmethoxy-5-fluoro-pyrimidin-2-yl)-2,6-difluoro-phenyl]-pyrrolidin-3-yl}-acetic acid] | 200 to 2000
10 | CCCCOc1cncc(-c2cc(F)c(N3CCC(CC(=O)O)C3)c(F)c2)n1 (stereo not shown) [Example 498, 2-{1-[2,6-difluoro-4-(6-butoxy-pyrazin-2-yl)phenyl]pyrrolidin-3-yl}acetic acid] | < 200
11 | O=C(O)CCCOc1c(F)cc(-c2csc(OCC3CC3)n2)cc1Cl [Example 427, 4-[2-chloro-4-(2-cyclopropylmethoxy-thiazol-4-yl)-6-fluoro-phenoxy]-butyric acid] | < 200
12 | O=C(O)CC1CCN(c2c(F)cc(-c3cccc(OC4CCC4)c3)cc2F)CC1 [Example 300, 2-[1-[4-[3-(cyclobutoxy)phenyl]-2,6-difluoro-phenyl]-4-piperidyl]acetic acid] | 200 to 2000
13 | Cc1cc(-c2cc(F)c(OCCCC(=O)O)c(Cl)c2)nc(OC2CCC2)n1 [Example 392, 4-[2-chloro-4-[2-(cyclobutoxy)-6-methyl-pyrimidin-4-yl]-6-fluoro-phenoxy]butanoic acid] | < 200
14 | CN(CCCC(=O)O)c1c(F)cc(-c2cncc(OC3CCC3)n2)cc1F [Example 488, 4-[4-[6-(cyclobutoxy)pyrazin-2-yl]-2,6-difluoro-N-methyl-anilino]butanoic acid] | < 200
15 | CC(CCCC(=O)O)c1c(F)cc(-c2ccc(Cl)c(OC3CCC3)n2)cc1F (stereo not shown) [Example 415, 5-[4-(5-chloro-6-cyclobutoxy-pyridin-2-yl)-2,6-difluoro-phenyl]-hexanoic acid] | < 200
16 | O=C(O)CC1CCN(c2c(F)cc(-c3csc(COCC4CC4)c3)cc2F)CC1 [Example 567, {1-[4-(5-cyclopropylmethoxymethyl-thiophen-3-yl)-2,6-difluoro-phenyl]-piperidin-4-yl}-acetic acid] | 200 to 2000

Next, values leading:

Row | EC50 [nM] | Compound
17 | < 200 | CN(CCCC(=O)O)c1c(F)cc(-c2cccc(OC3CCCC3)n2)cc1F [Example 204, 4-{[4-(6-cyclopentyloxy-pyridin-2-yl)-2,6-difluoro-phenyl]-methyl-amino}-butyric acid]
18 | < 200 | O=C(O)CCCOc1c(F)cc(-c2cncc(OCC3CC3)n2)cc1Cl [Example 431, 4-[2-chloro-4-(6-cyclopropylmethoxy-pyrazin-2-yl)-6-fluoro-phenoxy]-butyric acid]
19 | < 200 | O=C(O)CCC1CCc2cc(-c3cccc(OC4CCCC4)n3)ccc2O1 (stereo not shown) [Example 9, 3-[6-(6-cyclopentyloxy-pyridin-2-yl)-chroman-2-yl]-propionic acid]
20 | < 200 | Oc1cc(COc2c(F)cc(-c3cccc(OCC4CC4)n3)cc2F)on1 [Example 72, 5-[[4-[6-(cyclopropylmethoxy)-2-pyridyl]-2,6-difluoro-phenoxy]methyl]isoxazol-3-ol]
21 | < 200 | CC(CCCC(=O)O)c1c(F)cc(-c2cccnc2SC2CCCC2)cc1F (stereo not shown) [Example 49, 5-[4-(2-cyclopentylsulfanyl-3-pyridyl)-2,6-difluoro-phenyl]hexanoic acid]
22 | < 200 | O=C(O)CC1CCN(c2c(F)cc(-c3cccnc3SC3CCCC3)cc2F)CC1 [Example 100, 2-[1-[4-(2-cyclopentylsulfanyl-3-pyridyl)-2,6-difluoro-phenyl]-4-piperidyl]acetic acid]
23 | < 200 | O=C(O)CCCOc1c(F)cc(-c2ccc(F)c(OCC3CC3)c2)cc1F [Example 527, 4-(3′-cyclopropylmethoxy-3,5,4′-trifluoro-biphenyl-4-yloxy)-butyric acid]
24 | < 200 | CC(CCCC(=O)O)c1c(F)cc(-c2cccc3c2OC2(CCCC2)O3)cc1F (stereo not shown) [Example 450, 5-(2,6-difluoro-4-spiro[1,3-benzodioxol-2,1′-cyclopentan]-4-yl-phenyl)hexanoic acid]
25 | 200 to 2000 | CC(C)Oc1cccc(-c2ccc3cc(CCC(=O)O)ccc3c2)c1 [Example 146, 3-[6-(3-isopropoxy-phenyl)-naphthalen-2-yl]-propanoic acid]
26 | < 200 | COc1cccc2ccn(-c3cc(F)c(OCCCC(=O)O)c(F)c3)c12 [Example 479, 4-[2,6-difluoro-4-(7-methoxyindol-1-yl)phenoxy]butanoic acid]
27 | < 200 | O=C(O)CCCOc1c(F)cc(-c2nccc(OCC3CC3)n2)cc1F [Example 433, 4-[4-(4-cyclopropylmethoxy-pyrimidin-2-yl)-2,6-difluoro-phenoxy]-butyric acid]
28 | 200 to 2000 | Cc1cc(Oc2ccc(F)cc2)nc(-c2cc(F)c(N3CCC(CC(=O)O)CC3)c(F)c2)n1 [Example 515, 2-[1-[2,6-difluoro-4-[4-(4-fluorophenoxy)-6-methyl-pyrimidin-2-yl]phenyl]-4-piperidyl]acetic acid]
29 | 2000 to 20000 | CCCSc1ncccc1-c1ccc(CCCc2noc(=S)[nH]2)cc1 [Example 64, 3-[3-[4-(2-propylsulfanyl-3-pyridyl)phenyl]propyl]-4H-1,2,4-oxadiazol-5-thione]
30 | < 200 | COc1ccc(-c2cc(F)c(OCCCC(=O)O)c(F)c2)nc1OCC1CC1 [Example 459, 4-[4-[6-(cyclopropylmethoxy)-5-methoxy-2-pyridyl]-2,6-difluoro-phenoxy]butanoic acid]
31 | < 200 | CC(CCCC(=O)O)c1c(F)cc(-c2cccc(SC3CCCC3)n2)cc1F (stereo not shown) [Example 54, 5-[4-(6-cyclopentylsulfanyl-2-pyridyl)-2,6-difluoro-phenyl]hexanoic acid]
32 | 200 to 2000 | O=C(O)C1CC1CNc1ccc(-c2cccnc2SC2CCCC2)cc1 (stereo not shown) [Example 211, 2-{[4-(2-cyclopentylsulfanyl-pyridin-3-yl)-phenylamino]-methyl}-cyclopropanecarboxylic acid]
33 | 200 to 2000 | CC(C)Sc1ncccc1-c1ccc2nc(CCC(=O)O)ccc2c1 [Example 1, 3-[6-(2-isopropylsulfanyl-pyridin-3-yl)-quinolin-2-yl]-propionic acid]
34 | < 200 | CC(CCCC(=O)O)c1c(F)cc(-c2cccnc2OC2CCOC2)cc1F (stereo not shown) [Example 230, 5-{2,6-difluoro-4-[2-(tetrahydro-furan-3-yloxy)-pyridin-3-yl]-phenyl}-hexanoic acid]
35 | < 200 | Cc1cnc(OC2CCCC2)c(-c2cc(F)c(N(C)CCCC(=O)O)c(F)c2)c1 [Example 217, 4-{[4-(2-cyclopentyloxy-5-methyl-pyridin-3-yl)-2,6-difluoro-phenyl]-methyl-amino}-butyric acid]
36 | 200 to 2000 | CCCOc1cccc(-c2cc(F)c(N3CCC(CC(=O)O)CC3)c(F)c2)c1OCCC [Example 458, 2-[1-[4-(2,3-dipropoxyphenyl)-2,6-difluoro-phenyl]-4-piperidyl]acetic acid]
37 | < 200 | CC1(C)Cc2c(cccc2-c2ccc(OCCCC(=O)O)c(F)c2)O1 [Example 194, 4-[4-(2,2-dimethyl-2,3-dihydro-benzofuran-4-yl)-2-fluoro-phenoxy]-butyric acid]
